According to publication PMC8071544, “Synthesis and Bioactivities of Marine Pyran-Isoindolone Derivatives as Potential Antithrombotic Agents” (Marine Drugs, 2021):

Key:
pro-uPA and plasminogen = target: T1, pro-uPA and plasminogen (Homo sapiens, UniProt P00747); test: Fibrinolytic activity in vitro (reciprocal activation of pro-uPA and plasminogen, urokinase activity by chromogenic substrate S-2444); format: biochemical; conditions: for EC50 (fibrinolytic activity): in vitro, slope of kinetic curve A405 nm, S-2444, mean of two independent experiments; for fibrinolytic activity (in words): compared with FGFC1
T1 construct: purchased Sigma Aldrich (China)
T1 sequence (P00747 20-810 limits assumed): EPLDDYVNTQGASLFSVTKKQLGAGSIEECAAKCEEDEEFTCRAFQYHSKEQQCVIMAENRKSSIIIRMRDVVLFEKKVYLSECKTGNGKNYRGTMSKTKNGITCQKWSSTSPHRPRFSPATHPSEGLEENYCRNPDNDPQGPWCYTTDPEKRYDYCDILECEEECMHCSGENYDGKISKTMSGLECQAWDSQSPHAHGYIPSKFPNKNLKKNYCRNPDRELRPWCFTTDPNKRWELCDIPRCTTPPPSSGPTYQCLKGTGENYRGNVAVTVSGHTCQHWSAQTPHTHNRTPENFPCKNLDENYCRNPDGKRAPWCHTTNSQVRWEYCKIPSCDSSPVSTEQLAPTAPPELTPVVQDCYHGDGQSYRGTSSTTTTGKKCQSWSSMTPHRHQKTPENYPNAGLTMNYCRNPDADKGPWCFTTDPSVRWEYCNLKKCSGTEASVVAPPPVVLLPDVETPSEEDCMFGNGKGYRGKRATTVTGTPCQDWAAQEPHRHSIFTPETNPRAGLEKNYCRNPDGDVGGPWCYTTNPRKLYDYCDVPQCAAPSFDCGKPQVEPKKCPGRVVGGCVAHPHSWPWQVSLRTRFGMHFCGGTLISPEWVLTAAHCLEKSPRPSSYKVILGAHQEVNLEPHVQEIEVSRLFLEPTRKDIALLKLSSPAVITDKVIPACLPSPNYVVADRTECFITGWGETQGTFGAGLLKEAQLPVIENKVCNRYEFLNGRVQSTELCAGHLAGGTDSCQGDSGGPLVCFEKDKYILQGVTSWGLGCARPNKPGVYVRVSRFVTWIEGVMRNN
Experimental: To evaluate the antithrombotic effect, all the synthesized FGFC1 derivatives were tested for their fibrinolytic activities in vitro. Fibrinolytic activity of each compound was expressed as 50% effective concentration (EC50), and FGFC1 was used as a positive control. The reciprocal activation of pro-uPA catalyzed plasminogen, which was measured based on urokinase activity by a chromogenic substrate S-2444. EC50 was calculated with the slope of kinetic curve of enzymatic reaction based on the reciprocal activation of pro-uPA and plasminogen (Figure 1 and Figure 2). The effect of introducing different hydrophobic moieties/groups to C-2, C-2′ and C-1′′ positions of FGFC1 was investigated by replacement of the protons on C2-OH/C2′-OH moieties and C1′′-COOH position, with methyl, ethyl, propyl, and bromo-substituted benzyl halide groups to yield derivatives F1–F7 (purity > 98% by HPLC analysis), which presented different urokinase activities and reciprocal activation of Pro-uPA-catalyzed plasminogen in vitro.
The fibrinolytic activities of compounds FGFC1 and derivatives F1–F7 were evaluated by plasmin method. Tris-HCl buffer solution (100 mmol/L, NaCl, pH 7.4), plasminogen (plg), BSA, and S-2444 were used as substrates. Derivatives F1–F7 dissolved in 0.05 mol/L Tris-HCl buffer containing NaCl (100 mmol/L) at pH 7.4 and the BSA used as a substrate.The concentrations of plg, BSA and S-2444 were 1.5 μmol/L, 5 μmol/L and 4 nmol/L, respectively. They were prepared in a 96-well microplate. After the predetermined sample solutions (compounds FGFC1 and F1–F7) were added, pro-uPA (20 μmol/L) was added into the 96-well microplate. The microplate was then cultivated at 37 °C for 60 min. The continuous variation trend of absorbance was determined for evaluation of fibrinolytic activity on the slope of the plots of A405 nm within 150 min. In the blank group, an equal volume of Tris-HCl solution was used as a blank control. All sample solutions were prepared by adding a small amount of DMSO (<5%, v/v) solution to dissolve the derivatives.

HeLa cells = test: MTT cytotoxicity assay on HeLa cells; format: cell-based, human; conditions: 0.25, 0.5, 1.0 mg/mL, Figure 2A
Experimental: (§1) The cytotoxicity of FGFC1 and derivative F6 on HeLa cell lines was screened by MTT assay. […] The introduction of substituted benzyl halide to the C-2, C-2′ and C-1″ position of FGFC1 decreased cytotoxicity, which increased with increasing concentration (0.25, 0.5, 1.0 mg/mL). Moreover, to evaluate the possible apoptosis of HeLa cells induced by F6, Fas/APO-1 (a type of cell-surface NGF/TNF receptor in cancer cell) assay was carried out (Figure 2B). To evaluate the immunogenic (inflammation) property, interleukin (IL-1) levels of derivative F6 was also tested by the IL-1 assays (Figure 2C). […] This meant that the ability of F6 to induce apoptosis was weaker than that of FGFC1. […] According to Figure 2B and Figure 2C, the negative effect of F6 on tissue cell was weaker than that of FGFC1.
HeLa (human cervical carcinoma) cells were incubated in medium (10% fetal bovine serum, 1% penicillin, 1% streptomycin) at 37 °C with 95% air and 5% CO2. Cells were passaged every 2–3 d and select exponential growth cells were used for further experiments.
The cell growth inhibitory activity of FGFC1 and derivative F6 on HeLa cell lines were determined by the MTT (3-(4,5-dimethylthiazol-2yl)-2,5-diphenyl tetrazolium bromide) assay as we previously reported. In addition, an equal volume of DMEM medium was added to the blank group.

Fas/Apo-1 = Fas/Apo-1 ELISA assay on HeLa cells; format: cell-based, human; conditions: Figure 2B, compared with blank and FGFC1
Experimental: as §1
Fas/Apo-1 assay was carried out according to the manufacturer’s protocol. A blank control group was set up. It was not added with the samples (FGFC1 and derivative F6) and the enzyme standard reagent, and the other steps were the same. The standard curve group and the sample group were tested. On the 96-well plate, the standard curve group was supplemented with 50 μL of the standard. […] After the addition of stop solution to reaction wells, the absorbance was recorded at OD 450 nm on an Enzyme-Labeled (microplate reader) Instrument after 15 min.

IL-1 = IL-1 ELISA assay on HeLa cells; format: cell-based, human; conditions: Figure 2C, compared with blank and FGFC1
Experimental: as §1
The cell culture method on the 96-well plate is in accordance with that in the MTT assay. The Elisa kit assay based on IL-1 of HeLa cells was consistent with the Fas/Apo-1 Elisa kit assay.

SMILES | EC50 (fibrinolytic activity) (pro-uPA and plasminogen) | also measured
COC(=O)[C@@H](CCCN1Cc2c(cc(OC)c3c2O[C@](C)(CC/C=C(\C)CCC=C(C)C)[C@H](O)C3)C1=O)N1Cc2c(cc(OC)c3c2O[C@](C)(CC/C=C(\C)CCC=C(C)C)[C@H](O)C3)C1=O [F1] | 59.7 µM | 
CCOC(=O)[C@@H](CCCN1Cc2c(cc(OCC)c3c2O[C@](C)(CC/C=C(\C)CCC=C(C)C)[C@H](O)C3)C1=O)N1Cc2c(cc(OCC)c3c2O[C@](C)(CC/C=C(\C)CCC=C(C)C)[C@H](O)C3)C1=O [F2] | 87.1 µM | 
CCCOC(=O)[C@@H](CCCN1Cc2c(cc(OCCC)c3c2O[C@](C)(CC/C=C(\C)CCC=C(C)C)[C@H](O)C3)C1=O)N1Cc2c(cc(OCCC)c3c2O[C@](C)(CC/C=C(\C)CCC=C(C)C)[C@H](O)C3)C1=O [F3] | 66.6 µM | 
CC(C)=CCC/C(C)=C/CC[C@@]1(C)Oc2c(c(OCc3ccc(C#N)cc3)cc3c2CN(CCC[C@H](C(=O)OCc2ccc(C#N)cc2)N2Cc4c(cc(OCc5ccc(C#N)cc5)c5c4O[C@](C)(CC/C=C(\C)CCC=C(C)C)[C@H](O)C5)C2=O)C3=O)C[C@H]1O [F4] | 82.8 µM | 
CC(C)=CCC/C(C)=C/CC[C@@]1(C)Oc2c(c(OCc3ccc(OC(F)(F)F)cc3)cc3c2CN(CCC[C@H](C(=O)OCc2ccc(OC(F)(F)F)cc2)N2Cc4c(cc(OCc5ccc(OC(F)(F)F)cc5)c5c4O[C@](C)(CC/C=C(\C)CCC=C(C)C)[C@H](O)C5)C2=O)C3=O)C[C@H]1O [F5] | 133.3 µM | fibrinolytic activity (in words) (pro-uPA and plasminogen): markedly decreased the fibrinolytic activity
CC(C)=CCC/C(C)=C/CC[C@@]1(C)Oc2c(c(OCc3ccc(Br)cc3)cc3c2CN(CCC[C@H](C(=O)OCc2ccc(Br)cc2)N2Cc4c(cc(OCc5ccc(Br)cc5)c5c4O[C@](C)(CC/C=C(\C)CCC=C(C)C)[C@H](O)C5)C2=O)C3=O)C[C@H]1O [F6] | 42.3 µM | cytotoxicity on HeLa cell lines (HeLa cells): moderate cytotoxicity; fibrinolytic activity relative to FGFC1 (pro-uPA and plasminogen; ratio of EC50 vs FGFC1): 2.72 fold; expression level of Fas (Fas/Apo-1): remarkably higher than that of the blank, but it was less than that of FGFC1; expression level of IL-1 (IL-1): obviously higher than that of blank, but it was less than that of FGFC1
CC(C)=CCC/C(C)=C/CC[C@@]1(C)Oc2c(c(OCc3ccccc3Br)cc3c2CN(CCC[C@H](C(=O)OCc2ccccc2Br)N2Cc4c(cc(OCc5ccccc5Br)c5c4O[C@](C)(CC/C=C(\C)CCC=C(C)C)[C@H](O)C5)C2=O)C3=O)C[C@H]1O [F7] | 119.6 µM | fibrinolytic activity (in words) (pro-uPA and plasminogen): retained fibrinolytic activity
CC(C)=CCC/C(C)=C/CC[C@@]1(C)Oc2c(c(O)cc3c2CN(CCC[C@H](C(=O)O)N2Cc4c(cc(O)c5c4O[C@](C)(CC/C=C(\C)CCC=C(C)C)[C@H](O)C5)C2=O)C3=O)C[C@H]1O [FGFC1, 2,5-Bis-[8-(4,8-dimethyl-nona-3,7-dienyl)-5,7-dihydroxy-8-methyl-3-keto-1,2,7,8-teraahydro-6H-pyran[a]isoindol-2-yl]-pentanoic acid, reference compound] | 115.0 µM | cytotoxicity on HeLa cell lines (HeLa cells): moderate cytotoxicity
